{"source": "patent US20260103444A1", "about": "“8-HYDROXYQUINOLINE COMPOUND AND USE THEREOF” (OSAKA UNIVERSITY, priority 2022, published 2026)", "key": {"cMLCK [1]": {"molecular_target": "T1, cMLCK (Homo sapiens, UniProt Q32MK0)", "T1 construct": "BTN (vendor prefix; by own knowledge, biotinylated); purchased Carna Bioscience #02-460-20N", "assay": "cMLCK activity, ADP-Glo kinase assay", "assay_type": "biochemical", "settings": "for cMLCK activity compared with the compound of Synthesis Example 1: ADP-Glo kinase assay, relative to Synthesis Example 1 (LEU-0992); for cMLCK activation action, dose dependence: ADP-Glo assay; for specificity for cMLCK: versus smMLCK and skMLCK", "description": "The cMLCK activation action by 8-hydroxyquinoline compounds was measured by using the ADP-Glo kinase assay (Promega) according to the manufacturer's protocol.\n(§1) Purchased purified human cMLCK (BTN-cMLCK, #02-460-20N, Carna Bioscience) as well as in-house purified calmodulin (NM 006888) and cardiac myosin regulatory light chain (MLC2v) (NM 000432) were used to perform phosphorylation to thereby establish an in vitro kinase assay system for measuring cMLCK activity according to the ADP-Glo assay (Promega) or Kumagai method. This system was then applied to high-throughput screening (HTS). The HTS was performed by using multiple domestic compound libraries (compound concentration: 10 μM), and structural development of candidate compounds was performed, thereby developing cMLCK activators based on the 8-hydroxyquinoline (8HQ) skeleton."}, "[2]": {"settings": "phase 3 clinical trial; cited from earlier work"}, "[3]": {"test_system": "wild-type human iPS cardiomyocytes", "assay": "intracellular calcium dynamics (Cal-520, FDSS kinetic plate imager)", "assay_type": "cell-based", "settings": "wild-type iPSC-CMs, various concentrations, with pacing", "description": "CTAs: average changes of calcium transient amplitude at systole, PWD50: pulse width duration measured at 50% CTAs\nWild-type iPSC-CMs were seeded on a 96-well plate at a density of 5×10^4 cells/well and cultured in DMEM with 10% FBS for 24 hours. Subsequently, Cal-520 (ab171868, Abcam) was then added to a final concentration of 5 μM, and the cells were cultured for an additional hour. After removing the medium and washing with HHBS buffer, the buffer was replaced with FluoroBrite DMEM containing various concentrations of LEUO-1154, isoproterenol (positive control group: catecholamine stimulation), or DMSO (negative control group). Intracellular calcium dynamics was then measured with pacing by using an FDSS/ρCell kinetic plate imager (Hamamatsu Photonics K. K.)."}, "cMLCK [4]": {"molecular_target": "T1, cMLCK", "assay": "phosphorylation of MLC2v by phos-tag PAGE", "assay_type": "biochemical"}, "[5]": {"molecular_target": "T2, human skeletal muscle-type MLCK (skMLCK) (Homo sapiens, UniProt Q9H1R3)", "T2 construct": "made in house", "assay": "specificity: in-vitro kinase reaction with skMLCK and its substrate MYLPF, ADP-Glo assay", "assay_type": "biochemical", "settings": "skMLCK with substrate MYLPF", "description": "(§2) Next, the specificity of the two 8HQ compounds (LEU-1142 and LEU-1170) for human smooth muscle-type MLCK (smMLCK, NM 053025) and human skeletal muscle-type MLCK (skMLCK, NM 033118), which are cMLCK family proteins, was examined (FIGS. 7-1 and 7-2). In-vitro kinase reactions were performed using smMLCK and its substrate MYL9 (NM 006097), and skMLCK and its substrate MYLPF (NM 013292), which had been all purified in-house, and their activity was measured according to the ADP-Glo assay."}, "[6]": {"molecular_target": "T3, human smooth muscle-type MLCK (smMLCK) (Homo sapiens, UniProt Q15746)", "T3 construct": "made in house", "assay": "specificity: in-vitro kinase reaction with smMLCK and its substrate MYL9, ADP-Glo assay", "assay_type": "biochemical", "settings": "smMLCK with substrate MYL9, ADP-Glo assay", "description": "as §2"}, "cMLCK [7]": {"molecular_target": "T1, cMLCK", "assay": "enzymatic study (Michaelis-Menten kinetics) of cMLCK", "assay_type": "biochemical", "description": "as §1"}}, "data": [{"smiles": "COc1ccc(C(Nc2ccccn2)c2cc(Cl)c3cccnc3c2O)cc1[N+](=O)[O-]", "note": "(stereo not drawn) [LEU-0997, 5-chloro-7-[(4-methoxy-3-nitrophenyl) (pyridin-2-ylamino)methyl]quinolin-8-ol]", "values": [{"measurement": "cMLCK activity compared with the compound of Synthesis Example 1", "setting": "cMLCK [1]", "result": "equivalent"}]}, {"smiles": "COc1ccc(C(NC(=O)C(C)C)c2cc([N+](=O)[O-])c3cccnc3c2O)cc1", "note": "(stereo not drawn) [LEU-1220, N-[(8-hydroxy-5-nitroquinolin-7-yl) (4-methoxyphenyl)methyl]isobutyramide]", "values": [{"measurement": "cMLCK activity compared with the compound of Synthesis Example 1", "setting": "cMLCK [1]", "result": "equivalent"}]}, {"smiles": "COC(=O)N1CCN(Cc2cccc(NC(=O)Nc3ccc(C)nc3)c2F)CC1", "note": "[Omecamtiv mecarbil (OM), Omecamtiv mecarbil]", "values": [{"measurement": "time to onset of heart failure", "setting": "[2]", "result": "prolonging the time to onset of heart failure without worsening prognosis"}]}, {"smiles": "CC(C)NCC(O)c1ccc(O)c(O)c1", "note": "(stereo not drawn) [isoproterenol, reference compound]", "values": [{"measurement": "calcium dynamics", "setting": "[3]", "result": "enhanced calcium dynamics"}]}, {"smiles": "Oc1ccccc1C(Nc1nccs1)c1ccc2cccnc2c1O", "note": "(stereo not drawn) [LEU-0945, 7-[(2-hydroxyphenyl) (thiazol-2-ylamino)methyl]quinolin-8-ol]", "values": [{"measurement": "cMLCK activity compared with the compound of Synthesis Example 1", "setting": "cMLCK [1]", "result": "weaker"}]}, {"smiles": "Oc1c(CN2CCC(Cc3ccccc3)CC2)cc(Cl)c2cccnc12", "note": "[LEU-0999, 7-[(4-benzylpiperidin-1-yl)methyl]-5-chloroquinolin-8-ol]", "values": [{"measurement": "cMLCK activity compared with the compound of Synthesis Example 1", "setting": "cMLCK [1]", "result": "weaker"}]}, {"smiles": "Oc1c(C(Nc2nccs2)c2ccccc2)ccc2cccnc12", "note": "(stereo not drawn) [LEU-1008, 7-[phenyl(thiazol-2-ylamino)methyl]quinolin-8-ol]", "values": [{"measurement": "cMLCK activity compared with the compound of Synthesis Example 1", "setting": "cMLCK [1]", "result": "equivalent"}]}, {"smiles": "Oc1cccnc1NC(c1ccc(F)cc1)c1ccc2cccnc2c1O", "note": "(stereo not drawn) [LEU-0942, 7-{(4-fluorophenyl) [(3-hydroxypyridin-2-yl)amino]methyl}quinolin-8-ol]", "values": [{"measurement": "cMLCK activity compared with the compound of Synthesis Example 1", "setting": "cMLCK [1]", "result": "weaker"}]}, {"smiles": "CCCCC(=O)NC(c1ccc(-n2ccnc2)cc1)c1cc([N+](=O)[O-])c2cccnc2c1O", "note": "(stereo not drawn) [LEU-1142, N-{[4-(1H-imidazol-1-yl)phenyl] (8-hydroxy-5-nitroquinolin-7-yl)methyl}pentanamide]", "values": [{"measurement": "phosphorylation of MLC2v", "setting": "cMLCK [4]", "result": "increase the phosphorylation of MLC2v"}, {"measurement": "cMLCK activation action, dose dependence", "setting": "cMLCK [1]", "result": "dose-dependent"}, {"measurement": "specificity for cMLCK", "setting": "cMLCK [1]", "result": "high specificity for cMLCK"}, {"measurement": "specificity for skMLCK", "setting": "[5]", "result": "Neither compound showed specificity"}, {"measurement": "specificity for smMLCK", "setting": "[6]", "result": "Neither compound showed specificity"}, {"measurement": "effect on Km", "setting": "cMLCK [7]", "result": "did not affect Km"}]}, {"smiles": "COc1ccc(C(NC(C)=O)c2cc([N+](=O)[O-])c3cccnc3c2O)cc1", "note": "(stereo not drawn) [LEU-0990, N-[(8-hydroxy-5-nitroquinolin-7-yl) (4-methoxyphenyl)methyl]acetamide]", "values": [{"measurement": "cMLCK activity compared with the compound of Synthesis Example 1", "setting": "cMLCK [1]", "result": "weaker"}]}, {"smiles": "Oc1c(C(c2ccc(C(F)(F)F)cc2)N2CCCCC2)ccc2cccnc12", "note": "(stereo not drawn) [LEU-0943, 7-(piperidin-1-yl [4-(trifluoromethyl)phenyl]methyl}quinolin-8-ol]", "values": [{"measurement": "cMLCK activity compared with the compound of Synthesis Example 1", "setting": "cMLCK [1]", "result": "weaker"}]}, {"smiles": "CCCCC(=O)NC(c1ccc(OC)cc1)c1cc(Cl)c2cccnc2c1O", "note": "(stereo not drawn) [LEU-1018, N-[(5-chloro-8-hydroxyquinolin-7-yl) (4-methoxyphenyl)methyl]pentanamide]", "values": [{"measurement": "cMLCK activity compared with the compound of Synthesis Example 1", "setting": "cMLCK [1]", "result": "weaker"}]}, {"smiles": "O=[N+]([O-])c1cccc(C(Nc2nccs2)c2ccc3cccnc3c2O)c1", "note": "(stereo not drawn) [LEU-0944, 7-[(3-nitrophenyl) (thiazol-2-ylamino)methyl]quinolin-8-ol]", "values": [{"measurement": "cMLCK activity compared with the compound of Synthesis Example 1", "setting": "cMLCK [1]", "result": "equivalent"}]}, {"smiles": "CCC(=O)NC(c1ccc(OC)cc1)c1cc([N+](=O)[O-])c2cccnc2c1O", "note": "(stereo not drawn) [LEU-0993]", "values": [{"measurement": "cMLCK activity compared with the compound of Synthesis Example 1", "setting": "cMLCK [1]", "result": "equivalent"}]}, {"smiles": "CCCCC(=O)NC(c1ccc(OC)cc1)c1ccc2cccnc2c1O", "note": "(stereo not drawn) [LEU-1128, N-[(8-hydroxyquinolin-7-yl) (4-methoxyphenyl)methyl]pentanamide]", "values": [{"measurement": "cMLCK activity compared with the compound of Synthesis Example 1", "setting": "cMLCK [1]", "result": "weaker"}]}, {"smiles": "CCCCC(=O)NC(c1ccc(N2CCOCC2)nc1)c1cc([N+](=O)[O-])c2cccnc2c1O", "note": "(stereo not drawn) [LEU-1170, N-[(8-hydroxy-5-nitroquinolin-7-yl) (6-morpholinopyridin-3-yl)methyl]pentanamide]", "values": [{"measurement": "phosphorylation of MLC2v", "setting": "cMLCK [4]", "result": "increase the phosphorylation of MLC2v"}, {"measurement": "cMLCK activation action, dose dependence", "setting": "cMLCK [1]", "result": "dose-dependent"}, {"measurement": "specificity for cMLCK", "setting": "cMLCK [1]", "result": "high specificity for cMLCK"}, {"measurement": "specificity for skMLCK", "setting": "[5]", "result": "Neither compound showed specificity"}, {"measurement": "specificity for smMLCK", "setting": "[6]", "result": "Neither compound showed specificity"}, {"measurement": "effect on Km", "setting": "cMLCK [7]", "result": "did not affect Km"}]}, {"smiles": "Oc1c(C(Nc2ccccn2)c2cccnc2)cc(Cl)c2cccnc12", "note": "(stereo not drawn) [LEU-0998, 5-chloro-7-[(pyridin-2-ylamino) (pyridin-3-yl)methyl]quinolin-8-ol]", "values": [{"measurement": "cMLCK activity compared with the compound of Synthesis Example 1", "setting": "cMLCK [1]", "result": "weaker"}]}]}
